Measured values: US8288390B2, “Benzofuran derivatives” (Takeda Pharmaceutical Company Limited, priority 2009, dated 2012)
Where a name gives a salt, the structure may show the parent alone.

Test system: rat mixed glial culture
Test: Activity of promoting neuronal neogenesis in rat mixed glial culture
Type: cell-based
Conditions: compound 1 μM + rhIGF-1 100 ng/ml, 3 days culture, absorbance at 450 nm (class III beta-tubulin antibody), control rhIGF-1 only = 100%; for activity at 1 µM: Rattus norvegicus, 72 h, read-out: Increase Ratio of the Absorbance (% control)
Experimental: From a three-day old SD rat, hippocampus and cerebral cortex were removed. By using a kit of dispersion liquid for neuronal cells (MB-X9901, manufactured by SUMITOMO BAKELITE CO., LTD.), cell suspension was prepared and then seeded on a 96-well plate coated with collagen Type I (4860-010, manufactured by Asahi Techno Glass Co., Ltd.) to 10^5 cells/well. Under the condition of 37° C. and 5% CO2, the cells were cultured for four days in a growth medium (D-MEM/F12 with 10% FBS, comprising PS).
After culturing, the medium was exchanged with a medium for differentiation (D-MEM/F12, comprising PS), added with rhIGF-1 (R&D Systems, 291-G1-250, final concentration of 100 ng/ml) and the compound to 1 μM, followed by further culture for three days. Cultured cells were fixed with 4% paraformaldehyde-PBS (manufactured by MUTO PURE CHEMICALS CO., LTD.) and subjected to membrane penetration using 0.1% Triton X-100 PBS, followed by blocking with Block Ace solution (UK-B80, manufactured by Dainippon Sumitomo Pharma Co., Ltd.). As a primary antibody, Anti-neuron-specific class III beta-tubulin antibody (R&D Systems, MAB1195, clone Tuj-1) was used after 1000× dilution. As a secondary antibody, Anti-Mouse Ig, HRP-Linked F (ab′) 2 Fragment Sheep (Amersham Biosciences, NA9310) was used after 10000× dilution. For washing process, the plate washer (BIO-TEK INSTRUMENTS ELX405) was used. For a chromogenic reaction, the reaction was carried out for 10 minutes using TMB Microwell Peroxidase Substrate System (Kirkegaard & Perry Laboratories, 50-76-00), followed by terminating the reaction according to the addition of 1M phosphoric acid. By using the plate reader (Labsystems Multiskan BICHROMATIC), absorbance at 450 nm was measured.
The absorbance for the case in which no compound is added (i.e., control, rhIGF-1 only) was 100%, and the increase ratio of the absorbance for the compound addition (i.e., compound+rhIGF-1) compared to the control was obtained as % control. Activity of the each compound for promoting neuronal differentiation that is measured according to the above method is summarized in Table 9 and Table 10.

Row | SMILES | activity at 1 µM | Increase Ratio of the Absorbance (% control)
1 | Cc1ccc(N2CCN(c3c(C)c(C)c4c(c3C)CC(C)(C)O4)CC2)cc1 [Example 12, 1-(4-Methylphenyl)-4-(2,2,4,6,7-pentamethyl-2,3-dihydro-1-benzofuran-5-yl)piperazine] | 336% | –
2 | Cc1c(C)c(N2CCN(c3nc(-c4ccccc4)ns3)CC2)c(C)c2c1OC(C)(C)C2 [Example 87, 1-(2,2,4,6,7-Pentamethyl-2,3-dihydro-1-benzofuran-5-yl)-4-(3-phenyl-1,2,4-thiadiazol-5-yl)piperazine] | 256% | –
3 | CCOc1ccc(N2CCN(c3c(C)c4c(c(OC)c3C)OC(C)C4)CC2)cc1 (centres unmarked) [Example 56, 1-(4-Ethoxyphenyl)-4-(7-methoxy-2,4,6-trimethyl-2,3-dihydro-1-benzofuran-5-yl)piperazine] | > 500% | –
4 | COc1ccc(N2CCN(c3c(C)c(C)c4c(c3C(C)C)CC(C)(C)O4)CC2)cc1 [Example 11, 1-(4-Methoxyphenyl)-4-[2,2,6,7-tetramethyl-4-(1-methylethyl)-2,3-dihydro-1-benzofuran-5-yl]piperazine] | 159% | –
5 | COc1ccc(C2CN(c3c(C)c(C)c4c(c3C)CC(C)(C)O4)CCN2C)cc1 (centres unmarked) [Example 13, 2-(4-Methoxyphenyl)-1-methyl-4-(2,2,4,6,7-pentamethyl-2,3-dihydro-1-benzofuran-5-yl)piperazine] | 265% | –
6 | COc1ccc(N2CCN(c3c(C)c(C)c4c(c3C)CC3(CCCC3)O4)CC2)cc1 [Example 19, 1-(4-Methoxyphenyl)-4-(4,6,7-trimethyl-3H-spiro[1-benzofuran-2,1′-cyclopentan]-5-yl)piperazine] | 278% | –
7 | COc1ccc(N2CCCN(c3c(C)c(C)c4c(c3C)CC(C)(C)O4)CC2)cc1 [Example 45, 1-(4-Methoxyphenyl)-4-(2,2,4,6,7-pentamethyl-2,3-dihydro-1-benzofuran-5-yl)-1,4-diazepane] | 205% | –
8 | COc1ccc(N2CCN(c3c(C)c(C)c4c(c3C)CC(C)(CO)O4)CC2)cc1 (centres unmarked) [Example 97, {5-[4-(4-Methoxyphenyl)piperazin-1-yl]-2,4,6,7-tetramethyl-2,3-dihydro-1-benzofuran-2-yl}methanol] | – | 439 % control
9 | CCc1c2c(c(C)c(C)c1N1CCN(c3ccc(OC)cc3)CC1)OC(C)(C)C2 [Example 9, 1-(4-Ethyl-2,2,6,7-tetramethyl-2,3-dihydro-1-benzofuran-5-yl)-4-(4-methoxyphenyl)piperazine] | 228% | –
10 | COc1ccc(N2CCN(c3c(C)c(C)c4c(c3C)CC(C)(CN3CCCC3)O4)CC2)cc1 (centres unmarked) [Example 116, 1-(4-Methoxyphenyl)-4-[2,4,6,7-tetramethyl-2-(pyrrolidin-1-ylmethyl)-2,3-dihydro-1-benzofuran-5-yl]piperazine] | 276% | –
11 | COc1ccc(N2CCN(c3c(C)c(C)c4c(c3C)CC(C)(C)O4)CC2)cn1 [Example 40, 1-(6-Methoxypyridin-3-yl)-4-(2,2,4,6,7-pentamethyl-2,3-dihydro-1-benzofuran-5-yl)piperazine] | 341% | –
12 | Cc1cc(N2CCN(c3c(C)c(C)c4c(c3C)CC(C)(C)O4)CC2)ccc1F [Example 35, 1-(4-Fluoro-3-methylphenyl)-4-(2,2,4,6,7-pentamethyl-2,3-dihydro-1-benzofuran-5-yl)piperazine] | 182% | –
13 | COc1ccc(N2CCN(c3c(C)c(C)c4c(c3C)CC(C)(CN3CCC(O)CC3)O4)CC2)cc1 (centres unmarked) [Example 133, 1-({5-[4-(4-methoxyphenyl)piperazin-1-yl]-2,4,6,7-tetramethyl-2,3-dihydro-1-benzofuran-2-yl}methyl)piperidine-4-ol] | > 500% | –
14 | Cc1c(C)c(N2CCN(c3ccc(S(C)(=O)=O)cc3)CC2)c(C)c2c1OC(C)(C)C2 [Example 92, 1-[4-(Methylsulfonyl)phenyl]-4-(2,2,4,6,7-pentamethyl-2,3-dihydro-1-benzofuran-5-yl)piperazine] | 457% | –
15 | Cc1nn(C)c(C)c1N1CCN(c2c(C)c(C)c3c(c2C)CC(C)(C)O3)CC1 [Example 117, 1-(2,2,4,6,7-Pentamethyl-2,3-dihydro-1-benzofuran-5-yl)-4-(1,3,5-trimethyl-1H-pyrazole-4-yl)piperazine] | 100% | –
16 | Cc1c(C)c(N2CCOC(Cc3ccccc3)C2)c(C)c2c1OC(C)(C)C2 (centres unmarked) [Example 16, 2-Benzyl-4-(2,2,4,6,7-pentamethyl-2,3-dihydro-1-benzofuran-5-yl)morpholine] | 344% | –
17 | COc1ccc(N2CCN(c3c(C)c(C)c4c(c3C)CC(C)(CN)O4)CC2)cc1 (centres unmarked) [Example 108, 1-{5-[4-(4-Methoxyphenyl)piperazin-1-yl]-2,4,6,7-tetramethyl-2,3-dihydro-1-benzofuran-2-yl}methaneamine] | 282% | –
18 | COc1ccc(N2CCN(c3c(C)c4c(c(OC)c3C)OC(C)C4)CC2)cc1F (centres unmarked) [Example 59, 1-(3-Fluoro-4-methoxyphenyl)-4-(7-methoxy-2,4,6-trimethyl-2,3-dihydro-1-benzofuran-5-yl)piperazine] | 478% | –
19 | COc1ccc(N2CCN(c3c(C)c(C)c4c(c3C)CC(C)(CO)O4)CC2)cc1 (single isomer, unassigned; (+)) [Example 144, (+)-{5-[4-(4-methoxyphenyl)piperazin-1-yl]-2,4,6,7-tetramethyl-2,3-dihydro-1-benzofuran-2-yl}methanol] | – | >500 % control
20 | COc1ccc(N2CCN(c3c(C)c(C)c4c(c3C)CC(C)(CNC(C)=O)O4)CC2)cc1 (centres unmarked) [Example 137, N-({5-[4-(4-methoxyphenyl)piperazin-1-yl]-2,4,6,7-tetramethyl-2,3-dihydro-1-benzofuran-2-yl}methyl)acetamide] | > 500% | –
21 | COc1ccc(N2CCN(c3c(C)c4c(c(OC(C)C)c3C)OC(C)C4)CC2)cc1 (centres unmarked) [Example 55, 1-(4-Methoxyphenyl)-4-[2,4,6-trimethyl-7-(1-methylethoxy)-2,3-dihydro-1-benzofuran-5-yl]piperazine] | > 500% | –
22 | COc1ccc(N2CCN(c3c(C)c(C)c4c(c3C)CC(C)(CN(C)C)O4)CC2)cc1 (centres unmarked) [Example 102, 1-{5-[4-(4-Methoxyphenyl)piperazin-1-yl]-2,4,6,7-tetramethyl-2,3-dihydro-1-benzofuran-2-yl}-N,N-dimethylmethaneamine] | 347% | –
23 | COc1ccc(N2CCN(c3c(C)c(C)c4c(c3-c3ccoc3)CC(C)(C)O4)CC2)cc1 [Example 6, 1-(4-Furan-3-yl-2,2,6,7-tetramethyl-2,3-dihydro-1-benzofuran-5-yl)-4-(4-methoxyphenyl)piperazine] | > 500% | –
24 | Cc1c(C)c(N2CCN(c3ccc(C#N)cc3)CC2)c(C)c2c1OC(C)(C)C2 [Example 90, 4-[4-(2,2,4,6,7-Pentamethyl-2,3-dihydro-1-benzofuran-5-yl)piperazin-1-yl]benzonitrile] | > 500% | –
25 | COc1ccc(N2CCN(c3c(C)c4c(c(OC)c3C)OC(C)C4)CC2)cc1 (centres unmarked) [Example 48, 1-(4-Methoxyphenyl)-4-(7-methoxy-2,4,6-trimethyl-2,3-dihydro-1-benzofuran-5-yl)piperazine] | > 500% | –
26 | COCC1(C)Cc2c(C)c(N3CCN(c4ccc(OC)cc4)CC3)c(C)c(C)c2O1 (centres unmarked) [Example 101, 1-[2-(Methoxymethyl)-2,4,6,7-tetramethyl-2,3-dihydro-1-benzofuran-5-yl]-4-(4-methoxyphenyl)piperazine hydrochloric acid salt] | > 500% | –
